Results from patent US5585259A, “Ecotin as a factor Xa, XIa, and XIIa inhibitor” (Corvas International, Inc., priority 1993, dated 1996).

Assays:
subtilisin = settings: cited from earlier work
thrombin = experiment: Protease assay, chromogenic substrate; assay type: biochemical; settings: 30 minutes preincubation, read-out: Inhibition constant
Method: (§1) Protease activity was determined using commercially available chromogenic substrates and purified proteases. The initial rate was determined with a Thermomax (Molecular Devices) microtiterplate reader at 405 nm wavelength at room temperature. The buffer used for all measurements contained 100 mM TRIS, 140 mM NaCl, 0.1% BSA, pH 7.4. […]
To determine inhibition constants, the protease was incubated during 90 minutes (factor Xa), 45 minutes (trypsin), or 30 minutes (thrombin, plasmin, factor VIIa-tissue factor, human plasma kallikrein, porcine pancreatic elastase, factor XIa, factor XIIa, activated protein C, recombinant t-PA and urokinase) in 150 μl before the substrate (50 μl) was added. The inhibition constant was determined from a plot of the relative activity versus the inhibitor concentration fitted with the following equation: […]
except for thrombin where the total enzyme concentration can be neglected compared to the inhibitor concentration and the equation is reduced to:
vi /vo =1/(1+[It ]/Ki *).
vi and vo are the initial rates measured in presence and in absence of inhibitor, [It ] and [Et ] are the total inhibitor and enzyme concentrations and Ki * is the apparent inhibition constant. […]

factor XIIA = experiment: Protease assay, chromogenic substrate; assay type: biochemical; settings: 30 minutes preincubation, read-out: Inhibition constant
Method: as §1
(§2) To determine inhibition constants, the protease was incubated during 90 minutes (factor Xa), 45 minutes (trypsin), or 30 minutes (thrombin, plasmin, factor VIIa-tissue factor, human plasma kallikrein, porcine pancreatic elastase, factor XIa, factor XIIa, activated protein C, recombinant t-PA and urokinase) in 150 μl before the substrate (50 μl) was added. The inhibition constant was determined from a plot of the relative activity versus the inhibitor concentration fitted with the following equation:
(§3) vi /vo ={([Et ]-[It ]-Ki *)+[([It ]+i
(§4) *-[Et ])^2 +4Ki *[Et ]]^ 1/2 }/2[Et ]
(§5) vi and vo are the initial rates measured in presence and in absence of inhibitor, [It ] and [Et ] are the total inhibitor and enzyme concentrations and Ki * is the apparent inhibition constant. It was assumed that under these conditions the apparent inhibition constant is not dependent on the substrate concentration and corresponds to the binding constant of the inhibitor to the active site of the protease in the conditions of the experiment.

urokinase = experiment: Protease assay, chromogenic substrate; assay type: biochemical; settings: 30 minutes preincubation, read-out: Inhibition constant
Method: as §1, §2, §3, §4, §5

human plasma kallikrein = experiment: Protease assay, chromogenic substrate; assay type: biochemical; settings: 30 minutes preincubation, read-out: Inhibition constant
Method: as §1, §2, §3, §4, §5

rt-PA = experiment: Protease assay, chromogenic substrate; assay type: biochemical; settings: 30 minutes preincubation, read-out: Inhibition constant
Method: as §1, §2, §3, §4, §5

factor XIa = experiment: Protease assay, chromogenic substrate; assay type: biochemical; settings: 30 minutes preincubation, read-out: Inhibition constant
Method: as §1, §2, §3, §4, §5

[1] = tested on: factor VIIa-tissue factor complex; experiment: Protease assay, chromogenic substrate; assay type: biochemical; settings: concentrations up to 1 μM
Method: as §1, §2, §3, §4, §5

plasmin = experiment: Protease assay, chromogenic substrate; assay type: biochemical
Method: as §1, §2, §3, §4, §5

activated protein C = experiment: Protease assay, chromogenic substrate; assay type: biochemical; settings: 30 minutes preincubation, read-out: Inhibition constant
Method: as §1, §2, §3, §4, §5

factor Xa = experiment: Protease assay, chromogenic substrate; assay type: biochemical; settings: 90 minutes preincubation, read-out: Inhibition constant
Method: as §1, §2, §3, §4, §5

kallikrein = settings: cited from earlier work
elastase = settings: cited from earlier work
trypsin = settings: cited from earlier work
[2] = tested on: chymotrypsin-like (protease I) esterase; settings: cited from earlier work
rat mast cell chymase = settings: cited from earlier work
pancreatic elastase = settings: cited from earlier work
[3] = tested on: trypsin-like (protease II) esterase; settings: cited from earlier work
thermolysin = settings: cited from earlier work
[4] = tested on: three membrane-associated serine proteases; settings: cited from earlier work
papain = settings: cited from earlier work
chymotrypsin = experiment: Protease assay; assay type: biochemical; settings: read-out: Inhibition constant
Method: Protease activity was determined using commercially available chromogenic substrates and purified proteases. The initial rate was determined with a Thermomax (Molecular Devices) microtiterplate reader at 405 nm wavelength at room temperature. The buffer used for all measurements contained 100 mM TRIS, 140 mM NaCl, 0.1% BSA, pH 7.4.
as §3, §4, §5

human serosal urokinase = settings: cited from earlier work
pepsin = settings: cited from earlier work
human pulmonary tryptase = settings: cited from earlier work
[5] = tested on: Staphylococcus aureus V8 protease; settings: cited from earlier work
[6] = tested on: eight soluble endoproteases which are isolated from E. coli (Do, Re, Mi, Fa, So, La, Ci, Pi); settings: cited from earlier work
[7] = tested on: occlusive thrombus formation in rat carotid artery; experiment: Rat model of FeCl3-induced platelet-dependent arterial thrombosis; assay type: in vivo; settings: 10 μg/kg/min continuous intravenous infusion
Excerpt: The rat model is a well characterized model of platelet dependent, arterial thrombosis which has been used in the evaluation potential antithrombotic compounds such as direct thrombin inhibitors. Kurz et al., 60 Thromb. Res. 269, 1990. […] In this model a platelet-rich, occlusive thrombus is formed in a segment of the rat carotid artery treated with a fresh solution of FeCl3 absorbed to a piece of filter paper. The FeCl3 is thought to diffuse into the treated segment of artery and causes de-endothelialization resulting in thrombus formation. The effect of a test compound on the incidence of occlusive thrombus formation following the application of the FeCl3 is monitored by ultrasonic flowtometry, and is used as the primary end point. The use of flowtometry is a modification of the original procedure in which thermal detection of clot formation was employed. Kurz et al., supra.
Male Harlan Sprague Dawley rats (420-450 g) were acclimated at least 72 hours prior to use and fasted for 12 hours prior to surgery with free access to water. The animals were prepared, anesthetized with Nembutal with catheters for blood pressure monitoring, drug and anesthesia delivery being implanted as described above. The left carotid artery was isolated by making a midline cervical incision followed by blunt dissection and spreading techniques to separate a 2 cm segment of the vessel from the carotid sheath. A silk suture was inserted under the proximal and distal ends of the isolated vessel to provide clearance for the placement of an ultrasonic flow probe (Transonic) around the proximal end of the vessel. […]
Following surgery, the animals were randomized in either a control (saline infusion) or treatment group with test compound (Ecotin) with at least 4 animals per group at the indicated dose. […] Blood pressure, blood flow, heart rate, and respiration were monitored for 60 minutes.
The incidence of occlusion (defined as the attainment of zero blood flow) was recorded as the primary end point. […] The segment was re-weighed following removal of the clot and the difference recorded as total % clot weight. […]

For “Ecotin: endogenous E. coli periplasmic serine protease (trypsin) inhibitor protein; recombinant form from pMa5-CI, molecular mass 16,098 Daltons”, the inhibition of subtilisin (subtilisin) is listed as “does not inhibit”, the Ki (thrombin) is listed as 7.2 µM and the Ki (factor XIIA) is listed as under 2.5 nM. For the same substance, the Ki (urokinase) was over 2500 nM, the Ki (human plasma kallikrein) was 1.4 nM and the Ki (rt-PA) was over 2500 nM. For the same substance, the Ki (factor XIa) was 2.5 to 25 nM, the “inhibition of factor VIIa-tissue factor complex” value [1] was “not inhibited” and the Plasmin inhibition (plasmin; 1 μM recombinant Ecotin) was 15%. The Inhibition constant (plasmin; plasmin, 30 minutes preincubation) was “inactive”, the Ki (activated protein C) was over 2500 nM and the Ki (factor Xa) was 0.05 to 0.2 nM. For the same substance, the inhibition of kallikrein (kallikrein) was “does not inhibit”, the inhibition of elastase (elastase) was “able to inhibit” and the inhibition of trypsin (trypsin) was “able to inhibit”. The “inhibition of chymotrypsin-like (protease I) esterase in E. coli” value [2] was “does not inhibit”, the “inhibition of rat mast cell chymase” value (rat mast cell chymase) was “potent inhibitor” and the “inhibition of pancreatic elastase” value (pancreatic elastase) was “potent inhibitor”. The “inhibition of trypsin-like (protease II) esterase in E. coli” value [3] was “does not inhibit”, the inhibition of thermolysin (thermolysin) was “does not inhibit” and the “inhibition of three membrane-associated serine proteases” value [4] was “insensitive to inhibition”. The inhibition of papain (papain) was “does not inhibit”, the Ki (chymotrypsin) was under 2.5 nM and the “inhibition of human serosal urokinase” value (human serosal urokinase) was “potent inhibitor”. For the same substance, the inhibition of pepsin (pepsin) was “does not inhibit”, the “inhibition of human pulmonary tryptase” value (human pulmonary tryptase) was “does not inhibit” and the “inhibition of Staphylococcus aureus V8 protease” value [5] was “does not inhibit”. The “inhibition of the eight soluble E. coli endoproteases” value [6] was “does not inhibit”, the “Time to Occlusion” value [7] was 20.1 ± 0.9 min and the “Incidence of Occlusion” value ([7]; 60 minute observation) was 2/6. For the same substance, the “Clot Formation (%)” value ([7]; p<0.01 vs Control) was 12.73 ± 8.04%.
